Assay results published in patent US10273228B2, “Hepatitis B viral assembly effectors” (Indiana University Research and Technology Corporation, priority 2015, dated 2019).

Tests used:
[1] = test system: AD38 cells; test: AD38 viability normalized to DMSO control; format: cell-based; details: 10 μM compound, vs DMSO control; Table 6
Description: (§1) AD38 cells were then re-suspended with 10 mL of treatment medium and counted. Wells of a collagen coated 96-well NUNC microtiter plate were seeded at 50,000/well in 180 μL of treatment medium, and 20 μL of either 10% DMSO (Control) or a 10× solution of test compound in 10% DMSO in treatment media was added for a final compound concentration 1, 3, or 10 μM (1.0% final [DMSO]) and plates were incubated for 6 days at 37° C.

[2] = test system: HBV viral load, AD38 cells; test: Activity of test compounds on viral production from AD38 cells (viral load by quantitative PCR of the core sequence in supernatant); format: cell-based, Hepatitis B virus; details: Hepatitis B virus, 144 h, 10 μM compound, 6 days at 37° C., vs DMSO control wells; Table 6; read-out: AD38 Viral Load (CpAM/DMSO %) at 10 μM
Description: as §1
Subsequently viral load production was assayed by quantitative PCR of the core sequence. Briefly, 5 μL of clarified supernatant was added to a PCR reaction mixture that contained forward primers HBV-f 5′-CTGTGCCTTGGGTGGCTTT-3′, Reverse primers HBV-r 5′-[…]-3′ and Fluorescent TaqMan™ Probes HBV-probe 5′-FAM/AGCTCCAAA/ZEN/[…]/3IABkFQ-3′ in Quanta Biosciences PerfeCTa® qPCR Toughmix®, and was subsequently on an Applied Biosystems VIIA7 in a final volume of 20 μL. The PCR mixture was incubated at 45° C. for 5 minutes, then 95° C. for 10 min, followed by 40 cycles of 10 seconds at 95° C. and 20 seconds at 60° C. Viral load was quantitated against known standards by using ViiA™ 7 Software. Viral load in the supernatant from wells with treated cells were compared against viral load in supernatant from DMSO control wells (≥3 per plate).

SMILES	AD38 Viability Normalized Result (CPAM/DMSO %) at 10 μM [1] [%]	activity at 10 µM [2] [%]
COc1ccc(S(=O)(=O)N2CCN(c3nc(C)cc(Nc4ccc(C)cn4)n3)CC2)cc1 [Compound 1200]	98	81
COc1ccc(S(=O)(=O)N2CCN(c3nc(C)cc(Nc4ccc(-c5ccccc5)cc4)n3)CC2)cc1 [Compound 1201]	101	90
COc1ccc(S(=O)(=O)N2CCN(c3nc(Nc4ccc(C)cc4)cc(N4CCNCC4)n3)CC2)cc1 [Compound 1202, 2-(4-((4-methoxyphenyl)sulfonyl)piperazin-1-yl)-6-(piperazin-1-yl)-N-(p-tolyl) pyrimidin-4-amine]	106	51
COc1ccc(S(=O)(=O)N2CCN(c3nc(Nc4ccc(C)cc4)cc(N4CCN(C)CC4)n3)CC2)cc1 [Compound 1207]	0	83
COc1ccc(S(=O)(=O)N2CCN(c3nc(Nc4ccc(C)cc4)cc(N4CCCC4=O)n3)CC2)cc1 [Compound 1212]	94	77
COc1ccc(S(=O)(=O)N2CCN(c3nc(Nc4ccc(C)cc4)cc(N4CCCCC4=O)n3)CC2)cc1 [Compound 1213]	94	40
COc1ccc(S(=O)(=O)N2CCN(c3nc(C)cc(Nc4ccccn4)n3)CC2)cc1 [Compound 1215]	89	93
COc1ccc(S(=O)(=O)N2CCN(c3nc(Nc4ccc(C)cc4)cc(-n4ccnc4)n3)CC2)cc1 [Compound 1229]	92	13
COc1ccc(S(=O)(=O)N2CCN(c3nc(Nc4ccc(C)cc4)cc(-n4cncn4)n3)CC2)cc1 [Compound 1230]	95	0
COc1ccc(S(=O)(=O)N2CCN(c3nc(Nc4ccc(C)cc4)cc(NC(C)C)n3)CC2)cc1 [Compound 1231]	94	45
COc1ccc(S(=O)(=O)N2CCN(c3nc(NCCO)cc(Nc4ccc(C)cc4)n3)CC2)cc1 [Compound 1232]	96	83
COc1ccc(S(=O)(=O)N2CCN(c3nc(C)cc(Nc4nccs4)n3)CC2)cc1 [Compound 1233]	95	87
COc1ccc(S(=O)(=O)N2CCN(c3nc(C)cc(Nc4cccnc4)n3)CC2)cc1 [Compound 1234]	101	82
Cc1ccc(Nc2cc(C)nc(N3CCN(S(=O)(=O)c4cn[nH]c4)CC3)n2)cc1 [Compound 1238]	102	26
Cc1ccc(S(=O)(=O)N2CCN(c3nc(Nc4ccc(F)cc4)cc(-n4cnnc4)n3)CC2)cc1 [Compound 1316]		25
Cc1cc(Nc2ccc(C#N)cc2)nc(N2CCN(S(=O)(=O)c3ccc(F)cc3)CC2)n1 [Compound 1319]		5
N#Cc1ccc(Nc2cc(C(F)(F)F)nc(N3CCN(S(=O)(=O)c4ccc(C(F)(F)F)cc4)CC3)n2)cc1 [Compound 1320]		18
Cc1ccc(S(=O)(=O)N2CCN(c3nc(C)cc(Nc4ccc(C#N)cc4)n3)CC2)cc1 [Compound 1321]		1
Cc1cc(Nc2ccc(C#N)cc2)nc(N2CCN(S(=O)(=O)c3ccc(C(F)(F)F)cc3)CC2)n1 [Compound 1322]		35
Cc1ccc(S(=O)(=O)N2CCN(c3nc(Nc4ccc(C#N)cc4)cc(C(F)(F)F)n3)CC2)cc1 [Compound 1324]		1
N#Cc1ccc(Nc2cc(C(F)(F)F)nc(N3CCN(S(=O)(=O)c4ccccc4)CC3)n2)cc1 [Compound 1325]		1
N#Cc1ccc(Nc2cc(C(F)(F)F)nc(N3CCN(S(=O)(=O)c4ccc(F)cc4)CC3)n2)cc1 [Compound 1326]		2
Cc1cc(Nc2ccc(C#N)cc2)nc(N2CCN(S(=O)(=O)c3ccccc3)CC2)n1 [Compound 1327]		1
Cc1cc(Nc2ccc(C#N)cc2)nc(N2CCN(S(=O)(=O)c3ccc(O)cc3)CC2)n1 [Compound 1328]		9
COc1ccc(S(=O)(=O)N2CCN(c3nc(Nc4ccc(C#N)cc4)cc(C(F)(F)F)n3)CC2)cc1 [Compound 1329]		1
